The values that follow come from publication PMC8909805, “Anticancer Activity of (S)-5-Chloro-3-((3,5-dimethylphenyl)sulfonyl)-N-(1-oxo-1-((pyridin-4-ylmethyl)amino)propan-2-yl)-1H-indole-2-carboxamide (RS4690), a New Dishevelled 1 Inhibitor” (Cancers, 2022).

Entries after “also recorded” stand apart in the source; their conditions may differ.

One experiment has as its system WNT/β-catenin pathway. In words: Inhibition of TCF/LEF (WRE-GFP reporter) activity in HEK293 cells expressing HA-FZD4. It is filed as cell-based. Conditions: Homo sapiens, HEK293, 48 h, 48 h treatment, read-out: EC50 ± SD WNT Pathway Inhibition. As for the experimental part:
Briefly, Hek293 cells were seeded on black 96-well Optiplates (PerkinElmer, Waltham, MA, USA) at a density of 5 × 10^3/well. After seeding for 16–24 h, cells were co-transfected with the cDNA coding for HA-FZD4 (0.04 µg/well) as well as with the reporter construct WRE-GFP (0.04 µg/well) using Lipofectamine. Hek293 cells were plated and treated with different dilutions of compounds 2, (S)-2 or (R)-1 for 48 h before being fixed and analyzed under a fluorescence microscope. Inhibition of WRE activity was measured by counting the percentage of GFP positive cells. Experiments were performed in triplicate and the standard deviations are indicated.
The activity of the compounds was further assayed in HEK293 cells transiently expressing both HA-FZD4 and the WNT reporter construct WRE-GFP (25). The latter presents the coding sequence of GFP under the control of an optimized WNT responsive element (WRE-wt). When WRE-GFP is transiently transfected in cells, it promotes GFP transcription and translation. The amount of GFP produced by each cell (and thus overall cell-fluorescence) depends on the intracellular levels of WNT pathway activity (Figure 5).

Another experiment has as its target T1, DVL1 PDZ domain (Homo sapiens, UniProt O14640).
T1 sequence (O14640 251-323 limits assumed): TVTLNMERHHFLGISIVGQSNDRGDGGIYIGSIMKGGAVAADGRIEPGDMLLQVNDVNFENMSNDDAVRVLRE
In words: Equilibrium (FRET) competition binding between DVL1 PDZ domain and dansylated TMEM88 C-terminal peptide. The following applies: compound at 5 µM. As for the experimental part: Equilibrium binding experiments were performed on a Fluoromax-4 single photon counting spectrofluorometer (Jobin-Yvon, NJ, USA). The buffer used was sodium phosphate 50 mM, DMSO 20% v/v, pH 7.2, and the temperature was set at 25 °C. […] Experiments were performed in the absence and in the presence of 1 µM and 5 µM constant concentration of (S)-2 or (R)-1 enantiomers. Normalized fluorescence collected at 540 nm was fitted using a hyperbolic function.

A further experiment deals with T2, NHERF1 PDZ1 domain (Homo sapiens, UniProt O14745).
T2 sequence (O14745 14-94 limits assumed): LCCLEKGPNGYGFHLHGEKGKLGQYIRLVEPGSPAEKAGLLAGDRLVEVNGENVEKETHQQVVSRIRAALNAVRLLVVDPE
In words: Inhibition of the NHERF1 PDZ1 domain. It is filed as binding. Conditions: data not shown.

A further experiment relates to SW480 cells. In words: Cell growth inhibition, XTT assay, SW480. The following applies: Homo sapiens, incubation time 72 h. It is filed as cell-based. As for the experimental part: Cell viability was evaluated by XTT [35] (SW480 and SW620 cells) or MTT [36] (HEK293 and HCT116 cells) colorimetric assays. Briefly, cells (range 10–30 × 10^3 cells/well) were seeded in 96-well microculture plates and then exposed to increasing concentrations of different compounds (range 0–300 µM) for 48 or 72 h. At the end of the treatment, media were removed and incubated at 37 °C in the dark for 4 h in phosphate-buffered saline (PBS) containing 0.2 mg/mL of sodium 3′-[1-[(phenylamino)-carbonyl]-3,4-tetrazolium]-bis(4-methoxy-6-nitro)benzene-sulfonic acid hydrate (XTT) (Thermo Fisher Scientific, Waltham, MA, USA) or (3-[4,5-dimethylthiazol-2-yl]-2,5 diphenyl tetrazolium bromide (MTT) (Merck, Kenilworth, NJ, USA) and phenazine methosulfate (PMS) at a final concentration of 25 µM. Absorbance at 450 nm and a reference wavelength of 650 nm was then measured using a microplate spectrophotometer (Multiskan FC Microplate Photometer, Thermo Scientific, Waltham, MA, USA). The cell growth inhibition rate was calculated utilizing the following formula: inhibition rate (%) = […], where Control OD is absorbance of negative control and Sample OD is absorbance of the test sample. The IC50 values were determined with GraphPad Prism 5 through constructed dose-response curves.
In vitro cultures of colon cancer cells often present mutations either in the APC gene or in the β-catenin gene. […] Two of these cell lines, colon cancer SW480 and SW620 cells, were used in dose-response experiments. […] We thus tested their growth inhibitory activity on the colon cancer cell line HCT116. In terms of APC and β-catenin, these represent the wt counterparts of SW480 and […]. HCT116 cells express wt APC and are heterozygous for β-catenin, harboring one wild type and one mutant (Ser45del) allele. WNT pathway activity and the survival of HCT116 cells thus depend on DVL and can be affected by FZD and DVL inhibitors. […]
(Tetrazolium assays rely on reduction of a dye to a coloured formazan, in cell work by metabolically active cells.)

A further experiment has as its system HCT116 cells. In words: ROS quantification with DCFDA probe in HCT116 cells. In kind it is cell-based, human. Conditions: 48 h treatment, increasing concentrations; % of DMSO control. As for the experimental part: HCT116 cells were grown in RPMI-1640 medium (Corning) containing 2 mM L-glutamine and supplemented with 100 IU/mL penicillin/streptomycin and 10% fetal bovine serum (FBS; Sigma-Aldrich, St Louis, MO, USA). HCT116 cells were treated in 96-well-black plates for 48 h with increased concentrations of […]. Quantification of ROS production was measured using 20 μM of the fluorescent probe 2′,7′-dichlorodihydrofluorescein diacetate DCFDA (Sigma Aldrich). The relative fluorescence emission was followed at 520 nm using VICTOR plate reader (VICTOR™ Multilabel Counter, Perkin Elmer) and was normalized to total protein content using BCA test. Total ROS production was presented as percentage with respect to the control (DMSO treated cells) that was set as 100%. Statistical analysis was performed using one-way ANOVA followed by the Bonferroni post hoc comparison test. p < 0.05 was considered significant. Data are representative of three independent experiments with similar results.
Reactive oxygen species (ROS) play important roles in cell growth and differentiation, metabolism and apoptosis. […] We measured the ability of compounds (S)-1 and (R)-1 to generate ROS in HCT116 cells using the fluorescent probe 2′,7′-dichlorodihydrofluorescein diacetate DCFDA. The ROS production (%) upon 48 h treatment was determined with increasing concentrations of (S)-1 or (R)-1. […]

Consider `Cc1cc(C)cc(S(=O)(=O)c2c(C(=O)N[C@H](C)C(=O)NCc3ccncc3)[nH]c3ccc(Cl)cc23)c1` [(R)-1], for which the results for the EC50 in the experiment with WNT/β-catenin pathway and with SW480 cells were 19.49 ± 0.06 µM and 59.5 ± 2.1 µM, respectively. In addition, on DVL1 PDZ domain, the “Effect on binding between DVL1 PDZ and TMEM88 peptide” value is recorded as “abolished the binding”. At NHERF1 PDZ1 domain, the “Inhibition of NHERF1 PDZ1 domain” value was “did not show inhibitory activity; also recorded: did not bind”.
Consider `Cc1cc(C)cc(S(=O)(=O)c2c(C(=O)N[C@@H](C)C(=O)NCc3ccncc3)[nH]c3ccc(Cl)cc23)c1` [(S)-1, (S)-5-Chloro-3-((3,5-dimethylphenyl)sulfonyl)-N-(1-oxo-1-((pyridin-4-ylmethyl)amino)propan-2-yl)-1H-indole-2-carboxamide], for which the “Effect on binding between DVL1 PDZ and TMEM88 peptide” value at DVL1 PDZ domain is on record as “abolished the binding”. Moreover, at NHERF1 PDZ1 domain, the “Inhibition of NHERF1 PDZ1 domain” value was “did not show inhibitory activity; also recorded: did not bind”. In the experiment on SW480 cells, this molecule yielded an EC50 of 55 ± 2.2 µM. Moreover, the ROS production entry in the experiment with HCT116 cells is “high level of ROS production; also recorded: superior to (R)-1 at any tested compound concentration; also recorded: higher level of ROS production”.
For `Cc1cc(C)cc(S(=O)(=O)c2c(C(=O)NC(C)C(=O)NCc3ccncc3)[nH]c3ccc(Cl)cc23)c1` (stereo not shown) [Compound 1], the half-maximal effective concentration (EC50) with WNT/β-catenin pathway stood at 3.46 ± 0.07 µM; in the experiment on SW480 cells it was 39.2 ± 1.58 µM.

What is called EC50 is the concentration at which the effect is half-maximal.
